# Laboratory results: PMC3416963 (Biochemistry, 2012)
# Target: LigI (Sphingobium sp. SYK-6, UniProt O87170)
# Experiment: spectrophotometric PDC hydrolysis at […] nm
# Type: biochemical
# Chain of LigI (O87170 2-293): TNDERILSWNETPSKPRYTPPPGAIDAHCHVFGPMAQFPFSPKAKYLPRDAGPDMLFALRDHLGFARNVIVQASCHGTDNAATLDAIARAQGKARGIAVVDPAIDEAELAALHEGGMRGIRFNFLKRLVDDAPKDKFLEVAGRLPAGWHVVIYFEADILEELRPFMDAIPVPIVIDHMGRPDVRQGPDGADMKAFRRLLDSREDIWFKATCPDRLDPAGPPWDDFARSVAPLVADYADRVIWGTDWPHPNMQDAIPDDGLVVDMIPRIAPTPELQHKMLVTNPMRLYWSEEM
row,Ki,Structure (SMILES)
1,75 ± 2 µM,"O=C(O)c1ccnc(C(=O)O)c1 [compound 2, pyridine-2,4-dicarboxylic acid]"
2,40 ± 3 µM,"O=C(O)c1cc(O)cc(C(=O)O)c1 [compound 5, 5-hydroxyisophthalic acid]"
